Measurements: patent publication US20080312227A1, “Substituted Pyrido(2,3-D) Pyrimidine Derivatives Useful as Medicines for the Treatment of Autoimmune Disorders” (4 AZA BIOSCIENCE NV, priority 2005, published 2008)
Counter-ions that a name gives are not always drawn. Like-named read-outs stand apart in the source and are kept apart here.

What was measured:
[1] = tested on: human TNF-α production by PBMC; assay: TNF-α assay (LPS-stimulated PBMC, sandwich ELISA); assay type: cell-based; details: PBMC stimulated with LPS 1 μg/ml, 72 hours, read-out: TNF α (IC50 in the TNFα assay)
Experimental: (§1) Peripheral blood mononuclear cells (herein referred as PBMC), in response to stimulation by lipopolysaccharide (hereinafter LPS), a gram-negative bacterial endotoxin, produce various […], in particular human TNF-α. Inhibition of the activation of PBMC can therefore be measured by the level of suppression of the production of TNF-α by PBMC in response to stimulation by LPS.
Such inhibition measurement was performed as follows: PBMC were isolated from heparinized peripheral blood by density gradient centrifugation over Lymphoprep (commercially available from Nycomed, Norway). LPS was then added to the PMBC suspension in complete medium (10^6 cells/ml) at a final concentration of 1 μg/ml. The pyrido[3,2-d]pyrimidine derivative to be tested was added at different concentrations (0.1 μM, 1 μM and 10 μM) and the cells were incubated at 37° C. for 72 hours in 5% CO2. The supernatants were collected, then TNF-α concentrations were measured with respectively an anti-TNF-α antibody in a sandwich ELISA (Duo Set ELISA human TNFα, commercially available from R&D Systems, United Kingdom). The colorimetric reading of the ELISA was measured by a Multiskan RC plate reader (commercially available from ThermoLabsystems, Finland) at 450 nm (reference wavelength: 690 nm). Data analysis was performed with Ascent software 2.6. (also from ThermoLabsystems, Finland): a standard curve (recombinant human TNFα) was drawn and the amount (pg/ml) of each sample on the standard curve was determined.
The % suppression of human TNFα production by the pyrido[2,3-d]pyrimidine derivatives of the invention was calculated using the formula: […]

[2] = tested on: mixed lymphocyte reaction (PBMC with irradiated allogeneic PBMC or RPMI1788 stimulator cells); assay: Mixed lymphocyte reaction (MLR) assay; assay type: cell-based, human; details: read-out: MLR (IC50, lowest concentration giving 50% suppression of the MLR)
Experimental: Pyrido[2,3-d]pyrimidine derivatives were first dissolved (10 mM) in dimethyl-sulfoxide (hereinafter referred as DMSO) and further diluted in culture medium before use for the following in vitro experiments. The commercially available culture medium consisted of RPMI-1640+10% foetal calf serum (FCS). Some pyrido[2,3-d]pyrimidine derivatives described herein were tested in the following mixed lymphocyte reaction (MLR) assay.
Peripheral blood mononuclear cells (hereinafter referred as PBMC) were isolated from heparinized peripheral blood by density gradient centrifugation over Lymphoprep (Nycomed, Maorstua, Norway). Allogeneic PBMC or Eppstein-Barr Virus-transformed human B cells [commercially available under the trade name RPMI1788 (ATCC name CCL156)] which strongly express B7-1 and B7-2 antigens were used as stimulator cells after irradiation with 30 Gy. MLR was performed in triplicate wells. After 5 days incubation at 37° C., 1 μCi [^3H]-thymidine was added to each cup. After a further 16 hours incubation, cells were harvested and counted in a β-counter. Inhibition of proliferation by a compound described in some of the present examples was counted while using the formula: […]
wherein cpm is the thymidine count per minute. The MLR assay is regarded by those skilled in the art as an in vitro analogue of the transplant rejection since it is based on the recognition of allogeneic major histocompatibility antigens on the stimulator leukocytes, by responding lymphocytes.

[3] = tested on: human IL-1 β production by PBMC; assay: IL-1 β assay (LPS-stimulated PBMC, sandwich ELISA); assay type: cell-based; details: PBMC stimulated with LPS 1 μg/ml, 72 hours, read-out: IC50 in the IL-1 β test (50% suppression of human IL-1 β)
Experimental: as §1, with “(LPS),” for “(hereinafter LPS),”, “IL-1 β.” for “TNF-α.”, “IL-1 β” for “TNF-α”
Such inhibition measurement was performed as follows: PBMC were isolated from heparinized peripheral blood by density gradient centrifugation over Lymphoprep (commercially available from Nycomed, Norway). LPS was then added to the PMBC suspension in complete medium (10^6 cells/ml) at a final concentration of 1 μg/ml. […] The supernatants were collected, then IL-1 β concentrations were measured with an anti-IL-1 β antibody in a sandwich ELISA. The calorimetric reading of the ELISA was measured by a Multiskan RC plate reader (commercially available from ThermoLabsystems, Finland) at 450 nm (reference wavelength: 690 nm). […] (also from ThermoLabsystems, Finland): a standard curve (recombinant human IL-1 β) was drawn and the amount (pg/ml) of each sample on the standard curve was determined.
The % suppression of human IL-1 β by the pyrido[2,3-d]pyrimidine derivatives of this invention was calculated using the formula: […]

[4] = 5 days incubation then 16 h [3H]-thymidine
[5] = Homo sapiens, RPMI-1788, 5 days incubation then 16 h [3H]-thymidine

Compound: CC(C)Oc1nc(N)nc2ncc(-c3cccs3)cc12 [Example 21, 2-amino-4-isopropoxy-6-(2-thienyl)pyrido[2,3-d]pyrimidine]
- IC50 ([1]; Homo sapiens): 800 nM

Compound: COc1ccc(-c2cnc3nc(N)nc(N4CCNCC4)c3c2)cc1OC [Example 22, 2-amino-4-(piperazin-1-yl)-6-(3,4-dimethoxyphenyl)-pyrido[2,3-d]pyrimidine]
- IC50 ([1]; Homo sapiens): 8100 nM

Compound: CCC(C)Oc1nc(N)nc2ncc(-c3ccc(OC)c(OC)c3)cc12 (centres unmarked) [Example 37, hydrochloride salt of 2-amino-4-(sec-butoxy)-6-(3,4-dimethoxyphenyl)-pyrido[2,3-d]pyrimidine]
- IC50 [2, 4]: 3200 nM
- IC50 [1]: 500 nM

Compound: COc1ccc(-c2cnc3nc(N)nc(N4CCN(C(=O)COc5ccccc5)CC4)c3c2)cc1OC [Example 10, 2-amino-4-(N-phenoxyacetyl-N-piperazin-1-yl)-6-(3,4-dimethoxyphenyl)pyrido[2,3d]pyrimidine]
- IC50 [2, 4]: 300 nM
- IC50 [1]: 1700 nM

Compound: COc1ccc(-c2cnc3nc(N)nc(OC4CCOCC4)c3c2)cc1OC [Example 33, 2-amino-4-(tetrahydro-2H-pyran-4-yloxy)-6-(3,4-dimethoxyphenyl)pyrido[2,3-d]pyrimidine]
- IC50 [2, 5]: 2400 nM
- IC50 ([1]; Homo sapiens): 600 nM

Compound: COc1ccc(-c2cnc3nc(N)nc(N4CCN(C(=O)OCc5ccccc5)CC4)c3c2)cc1OC [Example 15, 2-amino-6-(3,4-dimethoxyphenyl)-4-[(N-benzyloxycarbonyl)-piperazin-1-yl]-pyrido[2,3-d]pyrimidine]
- IC50 [2, 4]: 800 nM
- IC50 [1]: 900 nM
- IC50 [3]: 7000 nM

Compound: COc1ccc(-c2cnc3nc(N)nc(N4CCCCC4)c3c2)cc1OC [Example 32, 2-amino-4-(1-piperidino)-6-(3,4-dimethoxyphenyl)pyrido[2,3-d]pyrimidine]
- IC50 [2, 4]: 1900 nM
- IC50 [1]: 900 nM

Compound: COc1ccc(-c2cnc3nc(N)nc(OC)c3c2)cc1OC [Example 35, 2-amino-4-methoxy-6-(3,4-dimethoxyphenyl)pyrido[2,3d]pyrimidine]
- IC50 [2, 4]: 6200 nM
- IC50 [1]: 900 nM

Compound: 2-amino-6-(3,4-dimethoxyphenyl)-4-(4-N-methyl piperidinoxy)pyrido[2,3-d]pyrimidine [Example 34]
- IC50 [1]: 6700 nM

Compound: CCC(C)Oc1nc(N)nc2ncc(-c3ccc(OC)c(OC)c3)cc12 (centres unmarked) [Example 36, 2-amino-4-(sec-butoxy)-6-(3,4-dimethoxyphenyl)-pyrido[2,3d]pyrimidine]
- IC50 [2, 4]: 2600 nM
- IC50 [1]: 600 nM

Compound: COc1ccc(-c2cnc3nc(N)nc(NCCc4ccccc4)c3c2)cc1OC [Example 44, 2-amino-4-(phenylethylamino)-6-(3,4-dimethoxyphenyl)pyrido[2,3-d]pyrimidine]
- IC50 [2, 5]: 4300 nM
- IC50 ([1]; Homo sapiens): 4200 nM

Compound: COc1ccc(-c2cnc3nc(N)nc(N4CCOCC4)c3c2)cc1OC [Example 4, 2-amino-4-morpholino-6-(3,4-dimethoxyphenyl)-pyrido[2,3-d]pyrimidine]
- IC50 [2, 5]: 4800 nM
- IC50 ([1]; Homo sapiens): 3200 nM

Compound: COc1ccc(-c2cnc3nc(N)nc(N4CCN(C(=O)Nc5ccc(C)cc5)CC4)c3c2)cc1OC [Example 12, 2-amino-4-(N-4-methylphenylcarbamoyl-piperazin-1-yl]-6-(3,4-dimethoxyphenyl)pyrido[2,3-d]pyrimidine]
- IC50 [2, 4]: 400 nM
- IC50 [1]: 4900 nM

Compound: COc1ccc(-c2cnc3nc(N)nc(Nc4cccc(Br)c4)c3c2)cc1OC [Example 42, 2-amino-4-(3-bromo-anilino)-6-(3,4-dimethoxyphenyl)pyrido[2,3-d]pyrimidine]
- IC50 [2, 5]: 3300 nM
- IC50 ([1]; Homo sapiens): 3300 nM
- IC50 ([3]; Homo sapiens): 7000 nM

Compound: COc1ccc(-c2cnc3nc(N)nc(N4CCN(Cc5ccccc5)CC4)c3c2)cc1OC [Example 23, 2-amino-4-(4-benzylpiperazin-1-yl)-6-(3,4-dimethoxyphenyl)-pyrido[2,3-d]pyrimidine]
- IC50 [2, 5]: 7200 nM
- IC50 ([1]; Homo sapiens): 700 nM

Compound: Cc1ccc(NC(=O)N2CCN(c3nc(N)nc4ncc(Br)cc34)CC2)cc1 [Example 7, 2-amino-4-[N-4-methylphenylcarbamoyl-piperazin-1-yl]-6-bromo-pyrido[2,3-d]pyrimidine]
- IC50 [2, 4]: 700 nM

Compound: COc1ccc(-c2cnc3nc(N)nc(NCc4ccccc4)c3c2)cc1OC [Example 43, 2-amino-4-(benzylamino)-6-(3,4-dimethoxyphenyl)pyrido[2,3-d]pyrimidine]
- IC50 [2, 5]: 5000 nM

Compound: COc1ccc(-c2cnc3nc(N)nc(NC(C)C)c3c2)cc1OC [Example 31, 2-amino-4-isopropylamino-6-(3,4-dimethoxyphenyl)pyrido[2,3-d]pyrimidine]
- IC50 [2, 5]: 5700 nM
- IC50 ([1]; Homo sapiens): 700 nM

Compound: COc1ccc(-c2cnc3nc(N)nc(OC(C)C)c3c2)cc1OC [Example 2, 2-amino-4-isopropoxy-6-(3,4-dimethoxyphenyl)-pyrido[2,3-d]pyrimidine]
- IC50 [2, 5]: 900 nM
- IC50 ([1]; Homo sapiens): 90 nM

Compound: Cc1ccc(-c2cnc3nc(N)nc(OC(C)C)c3c2)cc1C [Example 38, 2-amino-4-isopropoxy-6-(3,4-dimethylphenyl)-pyrido[2,3-d]pyrimidine]
- IC50 ([1]; Homo sapiens): 900 nM

Compound: CCCNc1nc(N)nc2ncc(-c3ccc(OC)c(OC)c3)cc12 [Example 30, 2-amino-4-n-propylamino-6-(3,4-dimethoxyphenyl)pyrido[2,3-d]pyrimidine]
- IC50 [2, 5]: 5200 nM
- IC50 ([1]; Homo sapiens): 4000 nM
